Assay results: ChEMBL document CHEMBL5500362, “Benzothiazole derivatives as histone deacetylase inhibitors for the treatment of autosomal dominant polycystic kidney disease” (Eur J Med Chem, 2024)
Activity calls are given as the source filed them. No cut-off for these calls is given here.

Key:
HeLa = conditions: Homo sapiens, dose 100.0 nM, time 15.0 min;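 note: HDAC inhibition in HeLa cells, read on a microplate reader using an acetylated peptide AMC substrate, expressed relative to control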
MDCK [1] = experiment: Upregulation of acetylation of alpha tubulin level in MDCK cells incubated for 24 hrs by Western blot analysis; type: functional, cell-based; conditions: Canis lupus familiaris, dose 0.3-1 µM
MDCK [2] = experiment: Antiproliferative activity against MDCK cells at 0.3 to 1 uM by Hoechst 33342 and EdU staining based analysis; type: functional, cell-based; conditions: Canis lupus familiaris, dose 0.3-1 µM
MDCK [3] = experiment: Inhibition of colony formation in MDCK cells measured after 8 days by crystal violet staining based analysis; type: functional, cell-based; conditions: Canis lupus familiaris, dose 0.3-1 µM, time 8.0 day
MDCK [4] = experiment: Cytotoxicity against MDCK cells at 0.3 to 1 uM by CCK-8 assay; type: toxicity, cell-based, Canis lupus familiaris; conditions: dog, dose 0.3-1 µM
MDCK [5] = experiment: Inhibition of cystogenesis in PKD1 knockout ADPKD MDCK cells assessed as inhibition of cyst formation at 0.3 to 1 uM; type: functional, cell-based; conditions: Canis lupus familiaris, dose 0.3-1 µM, time 4-10 day, TDE = time-dependent effect
Kidney = experiment: Ex vivo inhibition of renal cystogenesis in wild type C57BL/6 mouse kidney assessed as suppression of 8-Br-cAMP-induced cyst development at 1 uM treated for 6 days by inverted microscopic analysis; type: functional, tissue-based; conditions: time 6.0 day
Mus musculus [6] = experiment: Inhibition of renal cystogenesis in PKD1 knockout ADPKD C57BL/6 mouse assessed as reduction in kidney size at 1 mg/kg, sc administered once daily for 1 week; type: functional, organism-based; conditions: time 1.0 weeks
Mus musculus [7] = experiment: Inhibition of renal cystogenesis in PKD1 knockout ADPKD C57BL/6 mouse assessed as reduction kidney to body weight ratio index at 1 mg/kg, sc administered once daily for 1 week (19.5 +/-0.5%); type: functional; parameters: scale not given: the % may be the effect or the level left; conditions: time 1 weeks
Mus musculus [8] = experiment: Inhibition of renal cystogenesis in PKD1 knockout ADPKD C57BL/6 mouse assessed as decrease in kidney size at 1 mg/kg, sc administered once daily for 1 week by H and E staining based analysis; type: functional, organism-based; conditions: time 1.0 weeks
Mus musculus [9] = experiment: Inhibition of renal cystogenesis in PKD1 knockout ADPKD C57BL/6 mouse assessed as reduction in renal cyst formation at 1 mg/kg, sc administered once daily for 1 week by H and E staining based analysis; type: functional, organism-based; conditions: time 1.0 weeks
Mus musculus [10] = experiment: Inhibition of renal cystogenesis in PKD1 knockout ADPKD C57BL/6 mouse assessed as increase in renal parenchyma at 1 mg/kg, sc administered once daily for 1 week by H and E staining based analysis; type: functional, organism-based; conditions: time 1.0 weeks
[11] = Half life in C57BL/6 mouse at 1 mg/kg, sc by LC-MS/MS analysis; type: ADME, organism-based; conditions: in vivo
[12] = Terminal elimination half life in C57BL/6 mouse at 1 mg/kg, sc by LC-MS/MS analysis; type: ADME, organism-based; conditions: in vivo, read-out: LambdaZ (converted)
[13] = Cmax in C57BL/6 mouse at 1 mg/kg, sc by LC-MS/MS analysis; type: ADME, organism-based; conditions: in vivo
[14] = Tmax in C57BL/6 mouse at 1 mg/kg, sc by LC-MS/MS analysis; type: ADME, organism-based; conditions: in vivo
[15] = AUC (0 to t) in C57BL/6 mouse at 1 mg/kg, sc by LC-MS/MS analysis; type: ADME, organism-based; conditions: in vivo
[16] = AUC (0 to infinity) in C57BL/6 mouse at 1 mg/kg, sc by LC-MS/MS analysis; type: ADME, organism-based; conditions: in vivo

Structure (SMILES)	inhibition (HeLa)	also measured
O=C(CCCOc1ccc(-c2nc3ccccc3s2)cc1)NO	3.33%	–
COc1ccc(-c2nc3ccccc3s2)cc1OCCCCCCC(=O)NO	88%	Activity (MDCK [1]): Dose-Dependent Effect; Activity (MDCK [2]): Active; inhibition (MDCK [3]): Dose-Dependent Effect; Activity (MDCK [4]): Non-Toxic; inhibition (MDCK [5]): Tde; Activity (Kidney): Active; Activity (Mus musculus [6]): Active; Activity (Mus musculus [7]): 14.2%; Activity (Mus musculus [8]): Active; Activity (Mus musculus [9]): Active; Activity (Mus musculus [10]): Active; half-life [11]: 5.75 h; k el [12]: 3.61e-05 s⁻¹; Cmax [13]: 572 ng/mL; Tmax [14]: 0.25 h; AUC(0-t) [15]: 597 ng·h/mL; AUC(0-inf) [16]: 614 ng·h/mL
O=C(COc1cccc(-c2nc3ccccc3s2)c1)NO	66.5%	–
O=C(CCCCCCOc1ccc(-c2nc3ccccc3s2)cc1)NO	84.2%	–
COc1ccc(-c2nc3ccc(C)cc3s2)cc1OCCCCCCC(=O)NO	67.8%	–
O=C(CCCCCCCOc1ccc(-c2nc3ccccc3s2)cc1)NO	9.17%	–
O=C(CCCCCCOc1ccc(-c2nc3ccccc3s2)cc1Cl)NO	18.3%	–
O=C(CCCCCCOc1ccc(-c2nc3ccccc3s2)c(Cl)c1)NO	33.2%	–
Cc1cc(-c2nc3ccccc3s2)ccc1OCCCCCCC(=O)NO	39.3%	–
COc1cc(-c2nc3ccccc3s2)cc(OC)c1OCCCCCCC(=O)NO	81.7%	–
O=C(CCCOc1cccc(-c2nc3ccccc3s2)c1)NO	41.2%	–
CCOc1cc(-c2nc3ccccc3s2)ccc1OCCCCCCC(=O)NO	75%	–
O=C(CCCCCOc1cccc(-c2nc3ccccc3s2)c1)NO	76.7%	–
O=C(CCCCOc1cccc(-c2nc3ccccc3s2)c1)NO	45.7%	–
O=C(CCCCCCCOc1cccc(-c2nc3ccccc3s2)c1)NO	65.3%	–
O=C(CCCCCCOc1cccc(-c2nc3ccccc3s2)c1)NO	76.8%	–
O=C(CCCCCCOc1ccc(-c2nc3ccccc3s2)cc1F)NO	46.2%	–
COc1cc(-c2nc3ccccc3s2)ccc1OCCCCCCC(=O)NO	74.2%	–

Structure (SMILES)	inhibition (HeLa)	also measured
O=C(CCCCOc1ccc(-c2nc3ccccc3s2)cc1)NO	56%	–
O=C(CCCCCCOc1cccc(-c2nc3ccccc3s2)c1F)NO	68.7%	–
O=C(CCCCCCOc1cccc(-c2nc3ccccc3s2)c1Cl)NO	62%	–
O=C(CCCCCOc1ccc(-c2nc3ccccc3s2)cc1)NO	26.8%	–
Cc1ccccc1C(=O)Nc1ccc(C(=O)N2CCCC(O)c3cc(Cl)ccc32)c(C)c1 (configuration not stated) [TOLVAPTAN]	–	Activity (Mus musculus [7]): 15.8%
COc1ccc(-c2nc3ccc(Cl)cc3s2)cc1OCCCCCCC(=O)NO	44.5%	–
O=C(CCCCCCOc1ccc(-c2nc3ccccc3s2)c(F)c1)NO	83%	–
O=C(CCCCCCOc1ccc(-c2nc3ccc(Cl)cc3s2)cc1)NO	21.7%	–
O=C(CCCCCCOc1ccc(-c2nc3cc(Cl)ccc3s2)cc1)NO	42.7%	–
COc1ccc(-c2nc3ccccc3s2)cc1OCCCCCCCC(=O)NO	28.2%	–
COc1ccc(-c2nc3cc(Cl)ccc3s2)cc1OCCCCCCC(=O)NO	37.2%	–
COc1ccc2nc(-c3ccc(OC)c(OCCCCCCC(=O)NO)c3)sc2c1	80.3%	–
COc1ccc2nc(-c3ccc(OCCCCCCC(=O)NO)cc3)sc2c1	51.7%	–
O=C(COc1ccc(-c2nc3ccccc3s2)cc1)NO	34.8%	–
O=C(CCCCCCOc1ccc(-c2nc3ccc(F)cc3s2)cc1)NO	61.2%	–
Cc1ccc2nc(-c3ccc(OCCCCCCC(=O)NO)cc3)sc2c1	52.3%	–
COc1ccc(-c2nc3ccc(F)cc3s2)cc1OCCCCCCC(=O)NO	77.3%	–
